Key:
C. albicans = experiment: Preservative challenge test; format: cell-based; parameters: key to Reduktion des Wachstums: k. W.: k.W.: kein Wachstum; details: 0,1 mg/ml, pH 6, inoculum 9,9•10^5/ml
Source text: (§1) Die konservierende Wirkung der Verbindungen der Formel I wird z.B. aus den Ergebnissen des folgenden Konservierungsmittelbelastungstests deutlich: […]

E. coli = experiment: Preservative challenge test; format: cell-based; parameters: key to Reduktion des Wachstums: k. W.: k.W.: kein Wachstum; details: 0,1 mg/ml, pH 6, inoculum 1,5•10^6/ml
Source text: as §1

Ps. aeruginosa = experiment: Preservative challenge test; format: cell-based; parameters: key: k. W.: k.W.: kein Wachstum; details: 0,1 mg/ml, pH 6, inoculum 1,1•10^6/ml
Source text: as §1

St. aureus = experiment: Preservative challenge test; format: cell-based; parameters: key: k. W.: k.W.: kein Wachstum; details: 0,1 mg/ml, pH 6, inoculum 1,4•10^6/ml
Source text: as §1

[1] = 5-day ocular tolerance test in animals; format: in vivo, Kaninchen
Source text: Die überraschenderweise verbesserte Augenverträglichkeit der Verbindungen der Formel I im Vergleich zu Benzalkoniumchlorid wird z.B. aus den Ergebnissen der im folgenden beschriebenen 5-Tage-Verträglichkeitsprüfung beim Tier deutlich: Verglichen wurden jeweils 0,01 %-ige Lösungen von Benzoxoniumchlorid und Benzalkoniumchlorid. Diese Lösungen wurden 5 Tage lang fünfmal (in 90 Minuten-Invervallen) in den Konjunktivalsack von Kaninchen eingetropft. Am Ende des Versuchs wurden die behandelten Augen auf Klinische Befunde, wie z.B. Rötungen der Konjunktiva, Korneatrübungen, Sekretion und Bindehautschwellungen, untersucht. Dabei ergaben sich die folgenden Resultate: Brenzoxoniumchlorid (≙ Verbindung der Formel I), 0,01 % 5 Instillationen/Tier/Tag im Abstand von jeweils 90 min keine Befunde Benzalkoniumchlorid (≙ Vergleichsverbindung), 0,01 % 5 Instillationen/Tier/Tag im Abstand von jeweils 90 min 4 Befunde

[2] = 4-week ocular local tolerance study in rabbits; format: in vivo, pigmentierte Himalayakaninchen; details: 0,01 % solution, 50 µl ten times daily at 45 min intervals into conjunctival sac of right eye for 4 weeks; histopathology at end; animals with conjunctival lesions and acanthosis/hyperkeratosis at margin of lower right eyelid
Source text: Die bessere Augenverträglichkeit der Verbindungen der Formel I im Vergleich zu Benzalkoniumchlorid wird z.B. auch aus den Ergebnissen der im folgenden beschriebenen 4 Wochen dauernden okularen, lokalen Verträglichkeitsstudie beim Kaninchen deutlich: Verglichen wurden jeweils 0,01 %-ige Lösungen von N-Benzyl-N-(gemischtes C₈-C₁₈-Alkyl)-N,N-bis-(2-hydroxyethyl)-ammoniumchlorid und Benzalkoniumchlorid. Als Versuchstiere dienten pigmentierte Himalayakaninchen. Diesen wurden 4 Wochen lang zehnmal täglich (in 45 Minuten-Intervallen) jeweils 50 µl der entsprechenden Lösung in den Konjunktivalsack des rechten Auges verabreicht. Zur Kontrolle wurde in das linke Auge jeweils eine Vergleichslösung, die kein Konservierungsmittel enthielt, eingetropft. Die Tiere wurden am ersten und am fünften Behandlungstag ophthalmologisch untersucht. […] Dagegen wurden bei 4 von 6 mit Benzalkoniumchloridlösung behandelten Tieren Läsionen in der Konjunktiva und eine Akanthose und Hyperkeratose am Rand des unteren rechten Augenlids beobachtet. Die Benzalkoniumchloridlösung verursachte demnach Aenderungen am konjunktivalen Epithel, welche bei der erfindungsgemässen Lösung nicht auftraten. Damit ist überzeugend nachgewiesen, dass die Verbindungen der Formel I eine im Vergleich zu Benzalkoniumchlorid überraschend verbesserte Langzeitverträglichkeit im Auge besitzen.

With `CCCCCCCCCCCC[N+](CCO)(CCO)Cc1ccccc1.[Cl-]` [Benzoxoniumchlorid, N-Benzyl-N-(n-dodecyl)-N,N-bis-(2-hydroxyethyl)-ammoniumchlorid] the “Reduktion des Wachstums” value (C. albicans; contact time 6 h) was “k. W”, the “Reduktion des Wachstums” value (C. albicans; contact time 24 h) was “k. W” and the killing at 100 µg/mL (C. albicans; Candida albicans, 10 min, contact time 10 min, read-out: Reduktion des Wachstums) was 100%. For the same compound, the “Reduktion des Wachstums” value (E. coli; contact time 6 h) was “k. W”, the “Reduktion des Wachstums” value (E. coli; contact time 24 h) was “k. W” and the killing at 100 µg/mL (E. coli; Escherichia coli, 10 min, contact time 10 min, read-out: Reduktion des Wachstums) was 100%. For the same compound, the “Reduktion des Wachstums” value (Ps. aeruginosa; contact time 10 min) was “k. W”, the “Reduktion des Wachstums” value (Ps. aeruginosa; contact time 6 h) was “k. W” and the “Reduktion des Wachstums” value (Ps. aeruginosa; contact time 24 h) was “k. W”. The “Reduktion des Wachstums” value (St. aureus; contact time 10 min) was “k. W”, the “Reduktion des Wachstums” value (St. aureus; contact time 6 h) was “k. W” and the “Reduktion des Wachstums” value (St. aureus; contact time 24 h) was “k. W”. The “Klinische Befunde” value ([1]; 0,01 % solution, 5 instillations/animal/day at 90 min intervals into the conjunctival sac for 5 days, eyes examined at end of test (conjunctival redness, corneal opacity, secretion, conjunctival swelling)) was “keine Befunde”.

For “N-Benzyl-N-(C₈-C₁₈-alkyl)-N,N-dimethylammoniumchlorid [Benzalkoniumchlorid, reference compound]”, the “Klinische Befunde” value ([1]; in vivo) was 4 Befunde and the “okulare Läsionen” value [2] was 4 von 6.

For “N-Benzyl-N-(gemischtes C₈-C₁₈-Alkyl)-N,N-bis-(2-hydroxyethyl)-ammoniumchlorid”, the “okulare Läsionen” value [2] was “keine okularen Läsionen”.
